Drawing on patent publication US10357481B2 (MERCK SHARP & DOHME CORP., priority 2015, dated 2019), this text covers Ki for 26 compounds.

Molecules are shown by their SMILES. Where only a bound is given, the exact number is not on record here.

The test addresses T1, human PDE2A1 (Homo sapiens, UniProt O00408).
T1 construct: GST; purchased BPS Bioscience (San Diego, Calif.) 60020; host or cells: insect cells
In words: IMAP FP PDE selectivity panel, human PDE2A1. In kind it is biochemical. To be noted: Lab B; read-out: Human PDE2 Ki (nM) Lab B. An outline of the steps:
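IMAP FP read-out, run at room temperature in parallel with PDE1–11: enzyme at 20% substrate conversion, 50 nM FAM-cAMP containing 1000 nM cGMP, Tris pH 7.2/MgCl2/DTT buffer. Compounds as ten 3-fold dilutions. Reaction 60 min, stopped with binding reagent for 1 h before polarization measurement.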

T1 sequence (O00408 1-920 isoform O00408-2): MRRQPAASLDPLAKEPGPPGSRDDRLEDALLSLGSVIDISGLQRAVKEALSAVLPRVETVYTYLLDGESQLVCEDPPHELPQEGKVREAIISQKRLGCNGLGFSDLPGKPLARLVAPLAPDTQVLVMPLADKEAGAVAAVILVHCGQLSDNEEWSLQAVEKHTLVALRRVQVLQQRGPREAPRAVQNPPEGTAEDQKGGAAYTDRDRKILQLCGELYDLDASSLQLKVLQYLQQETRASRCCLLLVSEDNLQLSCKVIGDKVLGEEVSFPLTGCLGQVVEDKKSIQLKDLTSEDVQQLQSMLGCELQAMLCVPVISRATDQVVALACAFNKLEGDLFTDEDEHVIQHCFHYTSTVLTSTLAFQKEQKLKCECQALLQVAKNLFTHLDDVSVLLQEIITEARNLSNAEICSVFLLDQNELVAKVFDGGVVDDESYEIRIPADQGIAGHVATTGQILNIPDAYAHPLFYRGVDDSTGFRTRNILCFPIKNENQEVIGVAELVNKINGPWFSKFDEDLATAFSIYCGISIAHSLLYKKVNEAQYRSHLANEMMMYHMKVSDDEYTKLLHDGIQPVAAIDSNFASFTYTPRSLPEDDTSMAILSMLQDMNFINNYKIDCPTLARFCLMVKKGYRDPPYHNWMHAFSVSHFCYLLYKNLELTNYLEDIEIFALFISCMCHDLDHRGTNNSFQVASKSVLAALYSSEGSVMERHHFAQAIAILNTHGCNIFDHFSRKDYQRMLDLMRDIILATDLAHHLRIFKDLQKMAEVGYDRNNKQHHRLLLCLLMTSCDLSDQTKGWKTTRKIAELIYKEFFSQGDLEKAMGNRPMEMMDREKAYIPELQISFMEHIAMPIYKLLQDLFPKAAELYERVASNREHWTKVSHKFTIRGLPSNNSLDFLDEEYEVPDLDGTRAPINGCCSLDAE

As for `CC(C)(O)C(Nc1cc(C(F)F)nc2ncnn12)c1ccc(OC(F)F)cc1Cl` (single isomer, unassigned) [Example 183, (1S or R)-[2-Chloro-4-(difluoromethoxy)phenyl]-1-{[5-(difluoromethyl) [1,2,4]triazolo [1,5-a]pyrimidin-7-yl]amino}-2-methylpropan-2-ol], the Ki worked out at 15 nM.

On to `CC(C)(O)C(Nc1cc(C(F)F)nc2ncnn12)c1ccc(OC(F)F)cc1Cl` (single isomer, unassigned) [Example 184, (1R or S)-[2-Chloro-4-(difluoromethoxy)phenyl]-1-{[5-(difluoromethyl) [1,2,4]triazolo [1,5-a]pyrimidin-7-yl]amino}-2-methylpropan-2-ol], for which the Ki was 68 nM.

As to `CC(C)(O)C(Nc1cc(C(F)F)nc2ncnn12)c1ccc(OC(F)(F)F)cc1F` (single isomer, unassigned) [Example 185, (1S or R)-{[5-(Difluoromethyl) [1,2,4]triazolo [1,5-a]pyrimidin-7-yl]amino}-1-[2-fluoro-4-(trifluoromethoxy)phenyl]-2-methylpropan-2-ol], the inhibition constant Ki was found to be 10 nM.

On to `CC(C)(O)C(Nc1cc(C(F)F)nc2ncnn12)c1ccc(OC(F)(F)F)cc1F` (single isomer, unassigned) [Example 186, (1R or S)-{[5-(Difluoromethyl) [1,2,4]triazolo [1,5-a]pyrimidin-7-yl]amino}-1-[2-fluoro-4-(trifluoromethoxy)phenyl]-2-methylpropan-2-ol], for which the Ki came to 1900 nM.

Take `CC(C)(O)C(Nc1cc(C(F)F)nc2ncnn12)c1ccc(OC(F)(F)F)c(F)c1` (single isomer, unassigned) [Example 187, (1S or R)-{[5-(Difluoromethyl) [1,2,4]triazolo [1,5-a]pyrimidin-7-yl]amino}-1-[3-fluoro-4-(trifluoromethoxy)phenyl]-2-methylpropan-2-ol]: the Ki came to 5.5 nM.

As to `CC(C)(O)C(Nc1cc(C(F)F)nc2ncnn12)c1ccc(OC(F)(F)F)c(F)c1` (single isomer, unassigned) [Example 188, (1R or S)-{[5-(Difluoromethyl) [1,2,4]triazolo [1,5-a]pyrimidin-7-yl]amino}-1-[3-fluoro-4-(trifluoromethoxy)phenyl]-2-methylpropan-2-ol], the Ki was greater than 2960 nM.

On to `CC(C)(O)C(Nc1cc(C(F)F)nc2ncnn12)c1ccc(OC(F)F)c(F)c1` (single isomer, unassigned) [Example 189, (1S or R)-[4-(Difluoromethoxy)-3-fluorophenyl]-1-{[5-(difluoromethyl) [1,2,4]triazolo [1,5-a]pyrimidin-7-yl]amino}-2-methylpropan-2-ol], for which the Ki worked out at 17 nM.

For `CC(C)(O)C(Nc1cc(C(F)F)nc2ncnn12)c1ccc(OC(F)F)c(F)c1` (single isomer, unassigned) [Example 190, (1R or S)-[4-(Difluoromethoxy)-3-fluorophenyl]-1-{[5-(difluoromethyl) [1,2,4]triazolo [1,5-a]pyrimidin-7-yl]amino}-2-methylpropan-2-ol], the Ki is greater than 2960 nM.

Regarding `COCC(Nc1cc(C)nc2ncnn12)c1ccc(C(F)(F)F)c(F)c1` (single isomer, unassigned) [Example 209, (R)- or (S)-N-(1-(3-Fluoro-4-(trifluoromethyl)phenyl)-2-methoxyethyl)-5-methyl-[1,2,4]triazolo [1,5-a]pyrimidin-7-amine], the inhibition constant (Ki) was greater than 2960 nM.

Consider `COCC(Nc1cc(C)nc2ncnn12)c1ccc(C(F)(F)F)c(F)c1` (single isomer, unassigned) [Example 210, (S)- or (R)-N-(1-(3-Fluoro-4-(trifluoromethyl)phenyl)-2-methoxyethyl)-5-methyl-[1,2,4]triazolo [1,5-a]pyrimidin-7-amine], for which the Ki is 583 nM.

For the compound `Cc1cc(NC(c2ccc(C(F)(F)F)cn2)C(C)C)n2ncnc2n1` (single isomer, unassigned) [Example 211, (R)- or (S)-5-Methyl-N-(2-methyl-1-(5-(trifluoromethyl)pyridin-2-yl)propyl)-[1,2,4] triazolo[1,5-a] pyrimidin-7-amine], the Ki is roughly 2480 nM.

For the compound `Cc1cc(NC(c2ccc(C(F)(F)F)cn2)C(C)C)n2ncnc2n1` (single isomer, unassigned) [Example 212, (S)- or (R)-5-Methyl-N-(2-methyl-1-(5-(trifluoromethyl)pyridin-2-yl)propyl)-[1,2,4]triazolo [1,5-a]pyrimidin-7-amine], the Ki was found to be 310 nM.

Take `CC(C)(O)C(Nc1cc(C(F)(F)F)nc2ncnn12)c1ccc(C(F)(F)F)c(F)c1` (single isomer, unassigned) [Example 213, (S)- or (R)-1-(3-Fluoro-4-(trifluoromethyl)phenyl)-2-methyl-1-(5-(trifluoromethyl)-[1,2,4]triazolo [1,5-a]pyrimidin-7-ylamino)propan-2-ol]: the Ki was greater than 2960 nM.

For the compound `CC(C)(O)C(Nc1cc(C(F)(F)F)nc2ncnn12)c1ccc(C(F)(F)F)c(F)c1` (single isomer, unassigned) [Example 214, (S)- or (R)-1-(3-Fluoro-4-(trifluoromethyl)phenyl)-2-methyl-1-(5-(trifluoromethyl)-[1,2,4]triazolo [1,5-a]pyrimidin-7-ylamino)propan-2-ol], the inhibition constant Ki was found to be 25 nM.

With `CCC(O)(CC)C(Nc1cc(C)nc2ncnn12)c1ccc(C(F)(F)F)c(F)c1` (single isomer, unassigned) [Example 215, (R)- or (S)-3-((3-Fluoro-4-(trifluoromethyl)phenyl)(5-methyl-[1,2,4]triazolo [1,5-a]pyrimidin-7-ylamino)methyl) pentan-3-ol], the Ki was greater than 2960 nM.

Consider `CCC(O)(CC)C(Nc1cc(C)nc2ncnn12)c1ccc(C(F)(F)F)c(F)c1` (single isomer, unassigned) [Example 216, (S)- or (R)-3-((3-Fluoro-4-(trifluoromethyl)phenyl)(5-methyl-[1,2,4]triazolo [1,5-a]pyrimidin-7-ylamino)methyl) pentan-3-ol], for which the Ki worked out at 134 nM.

With `COCC(Nc1cc(C(F)(F)F)nc2ncnn12)c1ccc(C(F)(F)F)c(F)c1` (single isomer, unassigned) [Example 217, (R)- or (S)-N-(1-(3-Fluoro-4-(trifluoromethyl)phenyl)-2-methoxyethyl)-5-(trifluoromethyl)-[1,2,4]triazolo [1,5-a]pyrimidin-7-amine], the Ki is 329 nM.

Turning to `COCC(Nc1cc(C(F)(F)F)nc2ncnn12)c1ccc(C(F)(F)F)c(F)c1` (single isomer, unassigned) [Example 218, (S)- or (R)-N-(1-(3-Fluoro-4-(trifluoromethyl)phenyl)-2-methoxyethyl)-5-(trifluoromethyl)-[1,2,4]triazolo [1,5-a]pyrimidin-7-amine], the Ki was greater than 2960 nM.

Consider `CCC(O)(CC)C(Nc1cc(C(F)(F)F)nc2ncnn12)c1ccc(C(F)(F)F)c(F)c1` (single isomer, unassigned) [Example 219, (R)- or (S)-3-((3-Fluoro-4-(trifluoromethyl)phenyl)(5-(trifluoromethyl)-[1,2,4]triazolo [1,5-a]pyrimidin-7-ylamino)methyl) pentan-3-ol], for which the Ki is 252 nM.

Consider `CCC(O)(CC)C(Nc1cc(C(F)(F)F)nc2ncnn12)c1ccc(C(F)(F)F)c(F)c1` (single isomer, unassigned) [Example 220, (S)- or (R)-3-((3-Fluoro-4-(trifluoromethyl)phenyl)(5-(trifluoromethyl)-[1,2,4]triazolo [1,5-a]pyrimidin-7-ylamino)methyl) pentan-3-ol], for which the Ki is roughly 2110 nM.

As for `CC(C)(O)C(Nc1cc(C(F)(F)F)nc2ncnn12)c1ccc(SC(F)(F)F)cc1` (single isomer, unassigned) [Example 221, (R)- or (S)-2-Methyl-1-(5-(trifluoromethyl)-[1,2,4]triazolo [1,5-a]pyrimidin-7-ylamino)-1-(4-(trifluoromethylthio)phenyl)propan-2-ol], the Ki was greater than 2960 nM.

For `CC(C)(O)C(Nc1cc(C(F)(F)F)nc2ncnn12)c1ccc(SC(F)(F)F)cc1` (single isomer, unassigned) [Example 222, (S)- or (R)-2-Methyl-1-(5-(trifluoromethyl)-[1,2,4]triazolo [1,5-a]pyrimidin-7-ylamino)-1-(4-(trifluoromethylthio)phenyl)propan-2-ol], the inhibition constant Ki was found to be 4.4 nM.

Regarding `CC(C)(O)C(Nc1cc(Cl)nc2ncnn12)c1ccc(C(F)(F)F)c(F)c1` (single isomer, unassigned) [Example 223, (R)- or (S)-1-(5-Chloro-[1,2,4]triazolo [1,5-a]pyrimidin-7-ylamino)-1-(3-fluoro-4-(trifluoromethyl)phenyl)-2-methylpropan-2-ol], the Ki was 1.1 nM.

Regarding `CC(C)(O)C(Nc1cc(Cl)nc2ncnn12)c1ccc(C(F)(F)F)c(F)c1` (single isomer, unassigned) [Example 224, (S)- or (R)-1-(5-Chloro-[1,2,4]triazolo [1,5-a]pyrimidin-7-ylamino)-1-(3-fluoro-4-(trifluoromethyl)phenyl)-2-methylpropan-2-ol], the Ki is 612 nM.

Regarding `Cc1cc(NC(c2ccc(C(F)(F)F)nc2)C(C)(C)O)n2ncnc2n1` (single isomer, unassigned) [Example 225, (R)- or (S)-2-Methyl-1-(5-methyl-[1,2,4]triazolo [1,5-a]pyrimidin-7-ylamino)-1-(6-(trifluoromethyl)pyridin-3-yl) propan-2-ol], the inhibition constant (Ki) is 258 nM.

Take `Cc1cc(NC(c2ccc(C(F)(F)F)nc2)C(C)(C)O)n2ncnc2n1` (single isomer, unassigned) [Example 226, (S)- or (R)-2-Methyl-1-(5-methyl-[1,2,4]triazolo [1,5-a]pyrimidin-7-ylamino)-1-(6-(trifluoromethyl)pyridin-3-yl) propan-2-ol]: the Ki was 356 nM.

A word on the Ki: it is a dissociation constant, usually derived from enzyme kinetics or from competition with a known ligand.
